Test results from ChEMBL document CHEMBL1132083, “Switching androgen receptor antagonists to agonists by modifying C-ring substituents on piperidino[3,2-g]quinolinone” (Bioorg Med Chem Lett, 1999).

Columns and labels:
[1] = molecular target: T1, Androgen receptor (Homo sapiens, UniProt P10275); details: cv-1
T1 sequence (P10275 whole entry): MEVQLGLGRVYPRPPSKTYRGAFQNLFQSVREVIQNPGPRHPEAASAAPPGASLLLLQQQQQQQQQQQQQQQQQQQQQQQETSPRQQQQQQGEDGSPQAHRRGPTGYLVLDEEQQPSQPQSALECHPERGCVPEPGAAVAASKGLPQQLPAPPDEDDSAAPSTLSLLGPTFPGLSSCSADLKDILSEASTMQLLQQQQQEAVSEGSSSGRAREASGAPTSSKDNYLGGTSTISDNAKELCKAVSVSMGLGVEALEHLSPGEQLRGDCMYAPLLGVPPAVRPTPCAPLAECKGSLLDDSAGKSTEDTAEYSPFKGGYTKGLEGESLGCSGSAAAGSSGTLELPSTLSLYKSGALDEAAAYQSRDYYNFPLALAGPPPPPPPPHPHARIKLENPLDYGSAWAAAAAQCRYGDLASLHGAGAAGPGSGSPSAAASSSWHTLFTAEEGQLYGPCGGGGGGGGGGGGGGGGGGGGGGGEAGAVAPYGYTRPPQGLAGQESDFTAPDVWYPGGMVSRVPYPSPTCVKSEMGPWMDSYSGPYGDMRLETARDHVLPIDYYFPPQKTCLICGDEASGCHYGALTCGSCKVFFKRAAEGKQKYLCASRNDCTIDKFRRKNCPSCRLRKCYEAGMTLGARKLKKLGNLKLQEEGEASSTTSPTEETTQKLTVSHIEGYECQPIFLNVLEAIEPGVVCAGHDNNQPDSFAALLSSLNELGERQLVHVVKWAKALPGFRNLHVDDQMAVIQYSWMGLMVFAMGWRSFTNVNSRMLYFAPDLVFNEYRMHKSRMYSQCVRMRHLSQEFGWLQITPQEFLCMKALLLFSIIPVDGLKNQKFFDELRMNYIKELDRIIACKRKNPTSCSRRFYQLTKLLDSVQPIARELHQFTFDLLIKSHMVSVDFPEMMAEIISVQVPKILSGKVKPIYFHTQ
Description: (§1) Agonistic activity against human androgen receptor (hAR) expressed in CV-1 cell lines

[2] = molecular target: T1, Androgen receptor
Description: (§2) Antagonistic activity against human androgen receptor (hAR) expressed in CV-1 cell lines

[3] = molecular target: T1, Androgen receptor; remark: listed apart in the source
Description: Binding affinity towards human androgen receptor (hAR), using dihydrotestosterone as radioligand for competitive binding assay

[4] = molecular target: T1, Androgen receptor; remark: listed apart in the source
Description: as §1

[5] = molecular target: T1, Androgen receptor; assay: Antagonistic activity against human androgen receptor (hAR) expressed in CV-1 cells; no data; format: functional, cell-based
[6] = molecular target: T2, Androgen receptor (Homo sapiens) (UniProt P10275); assay: Antagonistic activity against human androgen receptor (hAR); no data; format: functional
T2 sequence (whole entry): T1 sequence (P10275 whole entry)

[7] = molecular target: T1, Androgen receptor; details: cv-1; remark: listed apart in the source
Description: as §2

For `CC[C@@H]1CCc2cc3c(C(F)(F)F)cc(O)nc3cc2N1`, the EC50 [1] was less than 10000 nM and the IC50 [2] was 11 nM.

Work on `CC[C@H]1Nc2cc3[nH]c(=O)cc(C(F)(F)F)c3cc2C[C@@H]1C` yielded a Ki [3] of 12 nM, an IC50 [2] of 11 nM and an EC50 [4] of 1670 nM.

In the case of `CC[C@H]1Nc2cc3[nH]c(=O)cc(C(F)(F)F)c3cc2CC1(C)C`, the Ki [3] is reported as 50 nM, the EC50 [1] is reported as less than 10000 nM and the IC50 [2] is reported as 42 nM.

In the case of `CC(C)[C@@H]1CCc2cc3c(C(F)(F)F)cc(=O)[nH]c3cc2N1`, the Ki [3] is reported as 109 nM, the EC50 [1] is reported as less than 10000 nM and the IC50 [2] is reported as 25 nM.

`CC[C@H]1C[C@@H](C)Nc2cc3nc(O)cc(C(F)(F)F)c3cc21` gave a Ki [3] of 23 nM, an IC50 [5] of less than 10000 nM and an Efficacy [6] of less than 20%. It also gave an EC50 [4] of 66 nM.

`CC[C@H]1Cc2cc3c(C(F)(F)F)cc(=O)[nH]c3cc2N[C@@H]1CC` gave a Ki [3] of 16 nM, an EC50 [4] of 3 nM and an IC50 [7] of less than 10000 nM.

Compound `C[C@H]1Cc2cc3c(C(F)(F)F)cc(O)nc3cc2N[C@@H]1C` has a Ki [3] of 22 nM, an EC50 [1] of less than 10000 nM and an IC50 [2] of 33 nM.

`CC[C@H]1Nc2cc3nc(O)cc(C(F)(F)F)c3cc2C[C@H]1C` was tested, and the Ki [3] was 11 nM, the IC50 [2] was 15 nM and the EC50 [4] was 2470 nM.

For `CC[C@@H]1Cc2cc3c(C(F)(F)F)cc(=O)[nH]c3cc2N[C@@H]1C`, the Ki [3] was 15 nM, the EC50 [4] was 10 nM and the IC50 [7] was less than 10000 nM.

`C[C@@H]1CCc2cc3c(C(F)(F)F)cc(=O)[nH]c3cc2N1` was tested, and the Ki [3] was 7 nM, the IC50 [2] was 19 nM and the EC50 [4] was 21 nM.

In the case of `C[C@H]1Nc2cc3nc(O)cc(C(F)(F)F)c3cc2CC1(C)C`, the Ki [3] is reported as 82 nM, the EC50 [1] is reported as less than 10000 nM and the IC50 [2] is reported as 24 nM.

`CC[C@@H]1Cc2cc3c(C(F)(F)F)cc(=O)[nH]c3cc2N[C@@H]1CC` gave a Ki [3] of 29 nM, an EC50 [4] of 20 nM and an IC50 [7] of less than 10000 nM.

`CC(C)(O)C(=O)Nc1ccc([N+](=O)[O-])c(C(F)(F)F)c1O` was tested, and the Ki [3] was 27 nM, the EC50 [1] was less than 10000 nM and the IC50 [2] was 15 nM.

`CC[C@H]1Cc2cc3c(C(F)(F)F)cc(O)nc3cc2N[C@@H]1C` showed a Ki [3] of 11 nM, an EC50 [4] of 9 nM and an IC50 [7] of less than 10000 nM.

`CCC[C@@H]1CCc2cc3c(C(F)(F)F)cc(O)nc3cc2N1` showed a Ki [3] of 24 nM, an EC50 [1] of less than 10000 nM and an IC50 [2] of 32 nM.

`CC[C@@H]1C[C@H](C)c2cc3c(C(F)(F)F)cc(O)nc3cc2N1` showed a Ki [3] of 21 nM, an IC50 [2] of 137 nM and an EC50 [4] of 119 nM.

Work on `C[C@@H]1C[C@H](C)c2cc3c(C(F)(F)F)cc(O)nc3cc2N1` yielded a Ki [3] of 6 nM, an IC50 [2] of 15 nM and an EC50 [4] of 59 nM.

Work on `CC[C@@H]1C[C@H](CC)c2cc3c(C(F)(F)F)cc(O)nc3cc2N1` yielded a Ki [3] of 9 nM, an IC50 [5] of less than 10000 nM and an Efficacy [6] of less than 20%. The EC50 [4] was 32 nM.

`C[C@@H]1Cc2cc3c(C(F)(F)F)cc(O)nc3cc2N[C@@H]1C` showed a Ki [3] of 15 nM, an IC50 [2] of 74 nM and an EC50 [4] of 34 nM.

For `CC[C@H]1Nc2cc3nc(O)cc(C(F)(F)F)c3cc2CC1(CC)CC`, the Ki [3] was 42 nM, the EC50 [1] was less than 10000 nM and the IC50 [2] was 48 nM.
